Active and inactive are the calls of the source. The rule behind the calls is not given here.
Tested on: human gammaherpesvirus 4
Test: Inhibition of Epstein-Barr virus early antigen activation

Row | SMILES | Activity
1 | CC(C)CC(=O)c1c(O)c(C=O)c2c(c1O)C[C@H]1C[C@H](C(C)C)C=C[C@@]1(C)O2 | inactive
2 | CC(C)CC(=O)c1c(O)c(C=O)c(O)c2c1O[C@]1(C)C=C[C@@H](C(C)C)C[C@@H]1C2 | inactive

From ChEMBL document CHEMBL1150193, “Euglobal T1, a New Euglobal from Eucalyptus tereticornis” (J Nat Prod, 1991)
